This passage reports IC50 results from patent US20250092031A1, “RIPK3 INHIBITORS AND METHODS OF USE” (Momentum Therapeutics, Inc., priority 2023, published 2025).

The IC50 is the point on the concentration scale where inhibition reaches its midpoint.

One assay deals with Murine L929 cells. The assay is described as follows: Necroptosis inhibition assay in L929 cells (mTNFα + zVAD, Sytox Green). In kind it is cell-based. Conditions: Mus musculus, 10 ng/ml mTNFα and 20 μM zVAD, 6 hours, Sytox Green fluorescence. Here is the method: Murine L929 cells (ATCC-CCL-1) were seeded at 10,000 cells/well in a 96-well plate. Cells were treated 48 hours after seeding with 10 ng/ml mTNFα (R&D Systems) and 20 μM zVAD (ChemShuttle) in the presence of different concentrations of compounds ranging from […] to 0.01 μM. Cells treated with 0.1% DMSO or cells treated with TNFα+zVAD were used as control and vehicle respectively.
Assay plates containing cells were incubated for 6 hours at 37° C. and 5% CO2. Necroptosis was assessed using Sytox Green Nucleic Acid Stain (Invitrogen). After incubation, 100 μL of Sytox dye at 2 μM (2×) diluted in HBSS 1× was added in each well and incubated for 15 min at room temperature. Fluorescence (500ex/530em) was recorded using the Cytation 5 microplate reader (Biotek).
(§1) Percentage of necroptosis inhibition was calculated as the percent compared to control and vehicle conditions which correspond to 100% and 0% respectively. The half-maximum necroptosis inhibition (IC50) levels were calculated using GraphPad Prism software and are shown in Table 3 (NT represents compound not tested).

Another assay relates to Human HT-29 cells. Kind of assay: Necroptosis inhibition assay in HT-29 cells (hTNFα + zVAD + SMAC mimetic, Sytox Green/Hoechst). Conditions: 10 ng/ml hTNFα, 20 μM zVAD and 100 nM SMAC mimetic, 6 hours, Sytox/Hoechst positive cells, read-out: HT29 necroptosis inhibition IC50. It is filed as cell-based. The protocol:
Human HT-29 cells (ATCC-HTB-38) were seeded at 10,000 cells/well in a 96-well plate. Cells were treated 48 hours after seeding with 10 ng/ml hTNFα (R&D Systems), 20 μM zVAD (ChemShuttle) and 100 nM SMAC mimetic (MedChem Express) in the presence of different concentrations of compounds ranging from […] to 0.01 μM. Cells treated with 0.1% DMSO or cells treated with TNFα+zVAD+SMAC mimetic were used as control and vehicle respectively.
Assay plates containing cells were incubated for 6 hours at 37° C. and 5% CO2. Necroptosis was assessed using Sytox Green Nucleic Acid Stain (Invitrogen) and Hoechst staining. After incubation, 100 μL of Sytox dye at 2 μM (2×) diluted in HBSS 1× was added to each well. At the same time, Hoechst stain is added to a final concentration of 10 μM and incubated for 15 min at room temperature. Images were taken for Sytox and Hoechst using the Cytation 5 microplate reader with DAPI and GFP filter cubes (Biotek). Sytox and Hoechst positive cells were counted with CellProfiler software.
as §1

Bounds are passed on as bounds.

As to `Fc1cc(CN2CCC3(CCNCC3)CC2)ccc1-c1ccc2nccc(Nc3ccc4scnc4c3)c2c1` [Compound 290, N-(6-(4-((3,9-diazaspiro[5.5]undecan-3-yl)methyl)-2-fluorophenyl)quinolin-4-yl)benzo[d]thiazol-5-amine], the IC50 in the assay with Murine L929 cells is < 10000 nM; with Human HT-29 cells it was < 1000 nM.

Consider `Fc1cc(CN2CCC3(CCNCC3)CC2)ccc1-c1ccc2c(Nc3ccc4scnc4c3)ccnc2c1` [Compound 291, N-(7-(4-((3,9-diazaspiro[5.5]undecan-3-yl)methyl)-2-fluorophenyl)quinolin-4-yl)benzo[d]thiazol-5-amine], for which the concentration for half-maximal inhibition (IC50) in the assay with Murine L929 cells is < 10000 nM; with Human HT-29 cells, < 1000 nM.

Take `C[C@@H]1CN(C(=O)c2ccc(-c3ccc4nccc(Nc5ccc6scnc6c5)c4c3)c(F)c2)C[C@H](C)N1` [Compound 293, (4-(4-(benzo[d]thiazol-5-ylamino)quinolin-6-yl)-3-fluorophenyl)((3R,5S)-3,5-dimethylpiperazin-1-yl)methanone]: the IC50 in the assay with Murine L929 cells is 347 nM; with Human HT-29 cells, 32.3 nM.

With `Fc1cc(OC2CCNCC2)ccc1-c1ccc2nccc(Nc3ccc4scnc4c3)c2c1` [Compound 295, N-(6-(2-fluoro-4-(piperidin-4-yloxy)phenyl)quinolin-4-yl)benzo[d]thiazol-5-amine], the 50% inhibitory concentration (IC50) in the assay on Murine L929 cells was found to be 781 nM; in the assay on Human HT-29 cells it was 147 nM.

Consider `Cc1cc(-c2ccc3nccc(Nc4ccc5scnc5c4)c3c2)c(F)cc1C(=O)N1CCNCC1` [Compound 296, (4-(4-(benzo[d]thiazol-5-ylamino)quinolin-6-yl)-5-fluoro-2-methylphenyl)(piperazin-1-yl)methanone], for which the IC50 with Murine L929 cells is 1290 nM; with Human HT-29 cells, 16.9 nM.

`Cc1cc(-c2ccc3c(Nc4ccc5scnc5c4)ccnc3c2)c(F)cc1C(=O)N1CCNCC1` [Compound 297, (4-(4-(benzo[d]thiazol-5-ylamino)quinolin-7-yl)-5-fluoro-2-methylphenyl)(piperazin-1-yl)methanone]: the concentration for half-maximal inhibition (IC50) with Murine L929 cells came to 282 nM; in the assay with Human HT-29 cells, 174 nM.

For `Fc1cc(CN2CC3CNCC3C2)ccc1-c1ccc2nccc(Nc3ccc4scnc4c3)c2c1` (stereo not shown) [Compound 299, N-(6-(2-fluoro-4-((hexahydropyrrolo[3,4-c]pyrrol-2(1H)-yl)methyl)phenyl)quinolin-4-yl)benzo[d]thiazol-5-amine], the concentration for half-maximal inhibition (IC50) in the assay on Murine L929 cells amounted to 987 nM; with Human HT-29 cells, 462 nM.

In the case of `Fc1cc(CN2CC3CNCC3C2)ccc1-c1ccc2c(Nc3ccc4scnc4c3)ccnc2c1` (stereo not shown) [Compound 300, N-(7-(2-fluoro-4-((hexahydropyrrolo[3,4-c]pyrrol-2(1H)-yl)methyl)phenyl)quinolin-4-yl)benzo[d]thiazol-5-amine], the IC50 was 461 nM in the assay on Murine L929 cells and 721 nM in the assay on Human HT-29 cells.

`O=C(c1ccc(-c2ccc3c(Nc4ccc5scnc5c4)ccnc3c2)c(F)c1)N1C[C@@H]2C[C@H]1CN2` [Compound 301, (4-(4-(benzo[d]thiazol-5-ylamino)quinolin-7-yl)-3-fluorophenyl)((1S,4S)-2,5-diazabicyclo[2.2.1]heptan-2-yl)methanone]: the IC50 in the assay on Murine L929 cells amounted to 427 nM; with Human HT-29 cells it was 197 nM.

`O=C(c1ccc(-c2ccc3c(Nc4ccc5scnc5c4)ccnc3c2)cc1F)N1CC2CNCC2C1` (stereo not shown) [Compound 303, (4-(4-(benzo[d]thiazol-5-ylamino)quinolin-7-yl)-2-fluorophenyl)(hexahydropyrrolo[3,4-c]pyrrol-2(1H)-yl)methanone]: the half-inhibitory concentration (IC50) in the assay on Murine L929 cells came to 977 nM; in the assay on Human HT-29 cells, 690 nM.

Regarding `O=C(c1ccc(-c2ccc3nccc(Nc4ccc5scnc5c4)c3c2)cc1F)N1CC2CNCC2C1` (stereo not shown) [Compound 305, (4-(4-(benzo[d]thiazol-5-ylamino)quinolin-6-yl)-2-fluorophenyl)(hexahydropyrrolo[3,4-c]pyrrol-2(1H)-yl)methanone], the IC50 in the assay with Murine L929 cells is > 10000 nM; in the assay with Human HT-29 cells, 402 nM.

Consider `O=C(c1ccc(-c2ccc3nccc(Nc4ccc5scnc5c4)c3c2)c(F)c1)N1C[C@H]2CNC[C@H]2C1` [Compound 306, (4-(4-(benzo[d]thiazol-5-ylamino)quinolin-6-yl)-3-fluorophenyl)((3aR,6aS)-hexahydropyrrolo[3,4-c]pyrrol-2(1H)-yl)methanone], for which the figures for the concentration for half-maximal inhibition (IC50) in the assay on Murine L929 cells and in the assay with Human HT-29 cells were < 10000 nM and 148 nM, respectively.

In the case of `O=C(c1ccc(-c2ccc3c(Nc4ccc5scnc5c4)ccnc3c2)c(F)c1)N1C[C@H]2CNC[C@H]2C1` [Compound 307, (4-(4-(benzo[d]thiazol-5-ylamino)quinolin-7-yl)-3-fluorophenyl)((3aR,6aS)-hexahydropyrrolo[3,4-c]pyrrol-2(1H)-yl)methanone], the half-inhibitory concentration (IC50) in the assay on Murine L929 cells worked out at 774 nM; with Human HT-29 cells, 271 nM.

For `NC1CN(C(=O)c2ccc(-c3ccc4c(Nc5ccc6scnc6c5)ccnc4c3)c(F)c2)C1` [Compound 310, (3-aminoazetidin-1-yl)(4-(4-(benzo[d]thiazol-5-ylamino)quinolin-7-yl)-3-fluorophenyl)methanone], the IC50 in the assay on Murine L929 cells came out at 663 nM; with Human HT-29 cells, 294 nM.

As to `Fc1cc(OC2CC3(CNC3)C2)ccc1-c1ccc2nccc(Nc3ccc4scnc4c3)c2c1` [Compound 311, N-(6-(4-(2-azaspiro[3.3]heptan-6-yloxy)-2-fluorophenyl)quinolin-4-yl)benzo[d]thiazol-5-amine], the results for the IC50 with Murine L929 cells and with Human HT-29 cells were 1030 nM and 732 nM, respectively.

As to `O=C(c1ccc(-c2ccc3c(Nc4ccc5scnc5c4)ccnc3c2)c(Cl)c1)N1CC2(CNC2)C1` [Compound 312, (4-(4-(benzo[d]thiazol-5-ylamino)quinolin-7-yl)-3-chlorophenyl)(2,6-diazaspiro[3.3]heptan-2-yl)methanone], the half-maximal inhibitory concentration (IC50) in the assay on Murine L929 cells was 668 nM; in the assay with Human HT-29 cells, 1560 nM.

For `O=C(c1ccc(-c2ccc3c(Nc4ccc5scnc5c4)ccnc3c2)c(F)c1)N1[C@@H]2CNC[C@H]1C2` [Compound 313, (4-(4-(benzo[d]thiazol-5-ylamino)quinolin-7-yl)-3-fluorophenyl)((1R,5S)-3,6-diazabicyclo[3.1.1]heptan-6-yl)methanone], the half-inhibitory concentration (IC50) in the assay with Murine L929 cells worked out at 402 nM; in the assay on Human HT-29 cells it was 302 nM.

For the molecule `CN1CCN(C(=O)c2ccc(-c3ccc4nccc(Nc5ccc6scnc6c5)c4c3)c(F)c2)CC1(C)C` [Compound 315, (4-(4-(benzo[d]thiazol-5-ylamino)quinolin-6-yl)-3-fluorophenyl)(3,3,4-trimethylpiperazin-1-yl)methanone], the values for the half-maximal inhibitory concentration (IC50) with Murine L929 cells and in the assay on Human HT-29 cells were 396 nM and 120 nM, respectively.

In the case of `CS(=O)(=O)N1CC2(CN(C(=O)c3ccc(-c4ccc5nccc(Nc6ccc7scnc7c6)c5c4)c(F)c3)C2)C1` [Compound 316, (4-(4-(benzo[d]thiazol-5-ylamino)quinolin-6-yl)-3-fluorophenyl)(6-(methylsulfonyl)-2,6-diazaspiro[3.3]heptan-2-yl)methanone], the IC50 with Murine L929 cells was 1580 nM; in the assay on Human HT-29 cells, 269 nM.

Consider `O=C(c1ccc(-c2ccc3nccc(Nc4ccc5scnc5c4)c3c2)c(F)c1)N1CCC(O)CC1` [Compound 317, (4-(4-(benzo[d]thiazol-5-ylamino)quinolin-6-yl)-3-fluorophenyl)(4-hydroxypiperidin-1-yl)methanone], for which the values for the IC50 with Murine L929 cells and with Human HT-29 cells were 707 nM and 169 nM, respectively.
